Assay results reported in patent US10011609B2, “Heterocyclic compounds” (CADILA HEALTHCARE LIMITED, priority 2013, dated 2018).
Read-outs that look alike come from different tables or passages of the source. Each block holds one compound with its values, some of them ahead of it.

Assays:
GPR40 [1] = target: T1, GPR40 (Homo sapiens, UniProt O14842); test: Intracellular Ca2+ flux fluorescent assay (FLIPR); assay type: cell-based
T1 construct: host or cells: HEK293 (ChemiBrite cell line)
Procedure: To determine the EC50 of the compounds on intracellular Ca^2+ flux using a fluorescent assay (FLIPR)
GPR40 expressing stable cells were seeded at 25,000 numbers/well. 50 μL/well of assay buffer (20 mM HEPES+1×HBSS) was added to the cells and the cells were cultured for 20 min at 37° C. Cells were loaded with 50 μL/well of Calcium 5 dye and cultured for 45 min at 37° C.
The cells were challenged with compounds at a top concentration of 1000 nM (1:3 step down dilution—10 points). Intracellular Calcium flux was assessed by use of Screen Works 3.1 tool and statistical analysis was carried using Graph Pad Prism 4

GPR40 [2] = target: T1, GPR40; test: Promoter-luciferase assay to measure GPR40 activation (HEK293 cells stably transfected with GPR40 cDNA); assay type: cell-based; conditions: HEK293 cells stably transfected with GPR40, 5xSRE-luciferase
Procedure: GPR40 activation was measured in HEK293 cells stably transfected with GPR40 cDNA (ChemiBrite cell lines from Millipore, US). These cells were transiently transfected with a pGL2 (Promega Inc.) plasmid having a 5×SRE sequence, cloned 5′ of a luciferase gene along with a β-galactosidase plasmid as normalizing control. Briefly, 35000 cells/well were seeded in a 96 well plates. After overnight incubation at 37° C., the cells were washed with PBS and transfected with the 5×-SRE-Luciferase plasmid and the β-galactosidase plasmid. 6 h post transfection, media was removed and replaced with fresh media with different concentration of drugs and incubated for 16 more hours. The cells were then lysed in 50 μL of Glo-Lysis buffer (Promega) for 30 min at room temperature. The cells were then centrifuged and lysates were collected. Luciferase activity was measured by adding 100 μL of luciferase substrate (Promega) in 20 μL of lysate and measuring the luminescence in luminometer. The […] activity was also measured by adding 20 μL of lysates with 20 μL of β-galactosidase buffer (Promega) and monitoring the absorbance at 415 nm. Luciferase values were divided by β-galactosidase values to normalize transfection efficiency (Table 2)

n-STZ rat model = test: Oral glucose tolerance test in n-STZ rat model; assay type: in vivo, Wistar rat; conditions: for % improvement in AUC glucose vs. control: n-STZ rat; for ED50: po, n-STZ rat OGTT model
Procedure: Primary Screening Protocol for GRP40 agonist test compounds in n-STZ rat model
Wistar rat pups of 1-2 day old injected with Streptozotocin (STZ) at 120 mg/kg dose by intraperitoneal route. All pups allowed grow normally and at the age of 12-14 week they were screen for glucose intolerance by performing the oral glucose tolerance test by tail clip method using glucometer. Animals showing glucose intolerance were selected for evaluation of test compound. Three to seven days of rest period animals were kept on overnight fasting. […] Animals were administered with test compound and then 15-60 min after the compound administration “O” min blood glucose levels were measured and immediately glucose load at 2 g/kg was administered orally. Blood glucose levels were measured at 30, 60 and 120 min after glucose load using by tail clip method using glucometer. Blood was also collected at 10 min after glucose load for measurement of insulin levels. Glucose area under the curve (AUC) was calculated using Graph Pad Prism software and % reduction in AUC-glucose vs vehicle treated control was calculated (Table 3).

Pharmacokinetics in rats = conditions: rat, in vivo; for MRT: read-out: Mean residence time; for Vd: read-out: Vss; for bioavailability: po 3 mg/Kg vs iv 1 mg/Kg
[3] = GPR40 expressing stable cells, intracellular Ca2+ flux, read-out: EC50 in FLIPR assay
[4] = read-out: EC50 in Luciferase assay
[5] = iv 1 mg/Kg, read-out: T1/2, iv (converted)
[6] = po 3 mg/Kg, read-out: T1/2, po (converted)

T1 sequence (O14842 whole entry, species assumed): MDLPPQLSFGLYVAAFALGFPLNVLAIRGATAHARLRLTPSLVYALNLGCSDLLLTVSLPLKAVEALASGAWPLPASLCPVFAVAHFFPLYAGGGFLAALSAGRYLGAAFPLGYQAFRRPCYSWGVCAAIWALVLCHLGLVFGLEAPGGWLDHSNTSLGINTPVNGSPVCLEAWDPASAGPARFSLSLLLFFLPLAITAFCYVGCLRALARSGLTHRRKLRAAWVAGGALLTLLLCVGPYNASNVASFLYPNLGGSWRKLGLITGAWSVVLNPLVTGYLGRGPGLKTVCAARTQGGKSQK

EC50 (GPR40 [1]; [3]): 1.8 nM
EC50 (GPR40 [2]; [4]): 1.49 nM
SMILES: CC#C[C@@H](CC(=O)O)c1ccc(OCc2cccc(CN3CCc4sc(C)cc4C3)c2)cc1 [Compound 7, (S)-3-(4-((3-((2-methyl-6,7-dihydrothieno[3,2-c]pyridin-5(4H)-yl)methyl)benzyl)oxy)phenyl)hex-4-ynoic acid]
% improvement in AUC glucose vs. control (n-STZ rat model; 0.1 mg/Kg per oral): 30.4%
% improvement in AUC glucose vs. control (n-STZ rat model; 1 mg/Kg per oral): 46.0%
% improvement in AUC glucose vs. control (n-STZ rat model; 10 mg/Kg per oral): 57.0%

EC50 (GPR40 [2]; [4]): 16.9 nM
SMILES: CC#C[C@@H](CC(=O)O)c1ccc(OCc2cccc(CN3CCc4nc(C)sc4C3)c2)cc1 [Compound 10, (S)-3-(4-((3-((2-methyl-6,7-dihydrothiazolo[5,4-c]pyridin-5(4H)-yl)methyl)benzyl)oxy)phenyl)hex-4-ynoic acid]
% improvement in AUC glucose vs. control (n-STZ rat model; 0.1 mg/Kg per oral): 21.1%
% improvement in AUC glucose vs. control (n-STZ rat model; 1 mg/Kg per oral): 35.7%
% improvement in AUC glucose vs. control (n-STZ rat model; 10 mg/Kg per oral): 45.0%

EC50 (GPR40 [1]; [3]): 2.32 nM
SMILES: CC#C[C@@H](CC(=O)O)c1ccc(OCc2cccc(CN3CCc4sc(Br)cc4C3)c2)cc1 [Compound 19, Calcium (S)-3-(4-((3-((2-bromo-6,7-dihydrothieno[3,2-c]pyridin-5(4H)-yl)methyl)benzyl)oxy)phenyl)hex-4-ynoate]

EC50 (GPR40 [1]; [3]): 36.3 nM
EC50 (GPR40 [2]; [4]): 31.5 nM
SMILES: CC#C[C@@H](CC(=O)O)c1ccc(OCc2cccc(CN3Cc4cnn(C)c4C3)c2)cc1 [Compound 22, (S)-3-(4-((3-((1-Methylpyrrolo[3,4-c]pyrazol-5(1H,4H,6H)-yl)methyl)benzyl)oxy)phenyl)hex-4-ynoic acid]

EC50 (GPR40 [2]; [4]): 0.8 nM
SMILES: CC#C[C@@H](CC(=O)O)c1ccc(OCc2cccc(CN3CCc4sc(C5CC5)cc4C3)c2)cc1 [Compound 69, (S)-3-(4-((3-((2-Cyclopropyl-6,7-dihydrothieno[3,2-c]pyridin-5(4H)-yl)methyl)benzyl)oxy)phenyl)hex-4-ynoic acid compound with 2,2,2-trifluoroacetic acid]

EC50 (GPR40 [2]; [4]): 0.4 nM
SMILES: CC#C[C@@H](CC(=O)O)c1ccc(OCc2cccc(CN3CCc4sc(CC)cc4C3)c2)cc1 [Compound 71, (S)-3-(4-((3-((2-Ethyl-6,7-dihydrothieno[3,2-c]pyridin-5(4H)-yl)methyl)benzyl)oxy)phenyl)hex-4-ynoic acid]

EC50 (GPR40 [2]; [4]): 2.3 nM
SMILES: CC#C[C@@H](CC(=O)O)c1ccc(OCc2cccc(CN3CCc4sc(C(C)=O)cc4C3)c2)cc1 [Compound 72, (S)-3-(4-((3-((2-Acetyl-6,7-dihydrothieno[3,2-c]pyridin-5(4H)-yl)methyl)benzyl)oxy)phenyl)hex-4-ynoic acid]

Continued, compound first:

SMILES: CC#C[C@@H](CC(=O)O)c1ccc(OCc2cccc(CN3CCc4sccc4C3)c2)cc1 [Compound 1, (S)-3-(4-((3-((6,7-dihydrothieno[3,2-c]pyridin-5(4H)yl)methyl)benzyl)oxy)phenyl)hex-4-ynoic acid]
EC50 (GPR40 [1]; [3]): 117 nM
EC50 (GPR40 [2]; [4]): 7.5 nM

SMILES: CC#C[C@@H](CC(=O)[O][Ca][O]C(=O)C[C@H](C#CC)c1ccc(OCc2cccc(CN3CCc4sc(C)cc4C3)c2)cc1)c1ccc(OCc2cccc(CN3CCc4sc(C)cc4C3)c2)cc1 [Compound 16, calcium(S)-3-(4-((3-((2-methyl-6,7-dihydrothieno[3,2-c]pyridin-5(4H)-yl)methyl)benzyl)oxy)phenyl)hex-4-ynoate(S)-3-(4-((3-((2-methyl-6,7-dihydrothieno[3,2-c]pyridin-5(4H)-yl)methyl)benzyl)oxy)phenyl)hex-4-ynoate]
EC50 (GPR40 [1]): 2.72 nM
EC50 (GPR40 [2]; EC50 in Luciferase assay): 4.6 nM
% improvement in AUC glucose vs. control (n-STZ rat model; 1 mg/Kg per oral): 44.6%
% improvement in AUC glucose vs. control (n-STZ rat model; 10 mg/Kg per oral): 59.6%
ED50 (n-STZ rat model): 0.05 mg/kg
AUC(0-t) (Pharmacokinetics in rats; iv 1 mg/Kg): 3180 ± 400 ng·h/mL
C0 (Pharmacokinetics in rats; iv 1 mg/Kg): 5020 ± 370 ng/mL
clearance (Pharmacokinetics in rats; iv 1 mg/Kg): 5.26 ± 0.65 mL/min/kg
MRT (Pharmacokinetics in rats; iv 1 mg/Kg): 1.09 ± 0.07 h
half-life (Pharmacokinetics in rats; [5]): 87 ± 7.2 min
Vd (Pharmacokinetics in rats; iv 1 mg/Kg): 0.34 ± 0.03 L/kg
Cmax (Pharmacokinetics in rats; po 3 mg/Kg): 5920 ± 2100 ng/mL
Tmax (Pharmacokinetics in rats; po 3 mg/Kg): 0.25 h
bioavailability (Pharmacokinetics in rats): 83%
MRT (Pharmacokinetics in rats; po 3 mg/Kg): 2.19 ± 0.31 h
half-life (Pharmacokinetics in rats; [6]): 106 ± 25.2 min

SMILES: CC#C[C@@H](CC(=O)[O][Ca][O]C(=O)C[C@H](C#CC)c1ccc(OCc2cccc(CN3CCc4nc(C)sc4C3)c2)cc1)c1ccc(OCc2cccc(CN3CCc4nc(C)sc4C3)c2)cc1 [Compound 17, calcium (S)-3-(4-((3-((2-methyl-6,7-dihydrothiazolo[4,5-c]pyridin-5(4H)-yl)methyl)benzyl)oxy)phenyl)hex-4-ynoate(S)-3-(4-((3-((2-methyl-6,7-dihydrothiazolo[4,5-c]pyridin-5(4H)-yl)methyl)benzyl)oxy)phenyl)hex-4-ynoate]
EC50 (GPR40 [1]): 10.2 nM
EC50 (GPR40 [2]; EC50 in Luciferase assay): 4.7 nM
% improvement in AUC glucose vs. control (n-STZ rat model; 1 mg/Kg per oral): 37.1%
% improvement in AUC glucose vs. control (n-STZ rat model; 10 mg/Kg per oral): 44.7%

SMILES: CC#C[C@@H](CC(=O)[O][Ca][O]C(=O)C[C@H](C#CC)c1ccc(OCc2cccc(CN3CCc4nc(Cl)sc4C3)c2)cc1)c1ccc(OCc2cccc(CN3CCc4nc(Cl)sc4C3)c2)cc1 [Compound 60, Calcium (S)-3-(4-((3-((2-chloro-6,7-dihydrothiazolo[5,4-c]pyridin-5(4H)-yl)methyl)benzyl)oxy)phenyl)hex-4-ynoate]
EC50 (GPR40 [2]; EC50 in Luciferase assay): 5.6 nM
% improvement in AUC glucose vs. control (n-STZ rat model; 1 mg/Kg per oral): 44%
% improvement in AUC glucose vs. control (n-STZ rat model; 10 mg/Kg per oral): 47%
ED50 (n-STZ rat model): 0.04 mg/kg
AUC(0-t) (Pharmacokinetics in rats; iv 1 mg/Kg): 18600 ± 2170 ng·h/mL
C0 (Pharmacokinetics in rats; iv 1 mg/Kg): 3390 ± 330 ng/mL
clearance (Pharmacokinetics in rats; iv 1 mg/Kg): 0.89 ± 0.1 mL/min/kg
MRT (Pharmacokinetics in rats; iv 1 mg/Kg): 6.28 ± 0.77 h
half-life (Pharmacokinetics in rats; [5]): 334 ± 87.6 min
Vd (Pharmacokinetics in rats; iv 1 mg/Kg): 0.33 ± 0.01 L/kg
Cmax (Pharmacokinetics in rats; po 3 mg/Kg): 7770 ± 1940 ng/mL
Tmax (Pharmacokinetics in rats; po 3 mg/Kg): 1 h
bioavailability (Pharmacokinetics in rats): 93%
MRT (Pharmacokinetics in rats; po 3 mg/Kg): 5.74 ± 0.1 h
half-life (Pharmacokinetics in rats; [6]): 327 ± 47.4 min

SMILES: CC#C[C@@H](CC(=O)[O][Ca][O]C(=O)C[C@H](C#CC)c1ccc(OCc2cccc(CN3CCc4oc(C5CC5)nc4C3)c2)cc1)c1ccc(OCc2cccc(CN3CCc4oc(C5CC5)nc4C3)c2)cc1 [Compound 64, Calcium (S)-3-(4-((3-((2-cyclopropyl-6,7-dihydrooxazolo[4,5-c]pyridin-5(4H)-yl)methyl)benzyl)oxy)phenyl)hex-4-ynoate]
EC50 (GPR40 [2]; EC50 in Luciferase assay): 1.2 nM
% improvement in AUC glucose vs. control (n-STZ rat model; 1 mg/Kg per oral): 46%
% improvement in AUC glucose vs. control (n-STZ rat model; 10 mg/Kg per oral): 47%
ED50 (n-STZ rat model): 0.09 mg/kg
AUC(0-t) (Pharmacokinetics in rats; iv 1 mg/Kg): 56100 ± 4350 ng·h/mL
C0 (Pharmacokinetics in rats; iv 1 mg/Kg): 10200 ± 1540 ng/mL
clearance (Pharmacokinetics in rats; iv 1 mg/Kg): 0.27 ± 0.03 mL/min/kg
MRT (Pharmacokinetics in rats; iv 1 mg/Kg): 10.1 ± 1.36 h
half-life (Pharmacokinetics in rats; [5]): 466 ± 64.2 min
Vd (Pharmacokinetics in rats; iv 1 mg/Kg): 0.16 ± 0.01 L/kg
Cmax (Pharmacokinetics in rats; po 3 mg/Kg): 8060 ± 2190 ng/mL
Tmax (Pharmacokinetics in rats; po 3 mg/Kg): 2 h
bioavailability (Pharmacokinetics in rats): 45%
MRT (Pharmacokinetics in rats; po 3 mg/Kg): 6.59 ± 0.93 h
half-life (Pharmacokinetics in rats; [6]): 271 ± 36.6 min
